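Test compounds were applied to cells in 96-well plates for 48 hours at 5 doses. GI50: concentration for 50% inhibition of growth. TGI denotes the concentration required for complete inhibition of growth.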
What was measured:
Experiment in all cases: NCI-60 cell line screen, 48 h
[1] = system: A498 renal
[2] = system: EKVX NSCLC
[3] = system: HOP-92 NSCLC
[4] = system: HT29 colon
[5] = system: RXF 393 renal
[6] = system: SF-268 CNS
[7] = system: SF-539 CNS
[8] = system: SK-MEL-28 melanoma
[9] = system: U251 CNS
[10] = system: UACC-257 melanoma

Structure (SMILES): CCCCCCCCCCCC[n+]1ccccc1 (tested in a mixture with another compound)
- GI50 [1]: 1.84 µM
- TGI [1]: 7.25 µM
- GI50 [2]: 0.428 µM
- TGI [2]: 5.13 µM
- GI50 [3]: 0.29 µM
- TGI [3]: 2.43 µM
- GI50 [4]: 0.28 µM
- TGI [4]: 4.21 µM
- GI50 [5]: 0.682 µM
- TGI [5]: 4.44 µM
- GI50 [6]: 1.2 µM
- TGI [6]: 3.44 µM
- GI50 [7]: 1.43 µM
- TGI [7]: 3.44 µM
- GI50 [8]: 1.35 µM
- TGI [8]: 3.53 µM
- GI50 [9]: 0.443 µM
- TGI [9]: 2.2 µM
- GI50 [10]: 0.772 µM
- TGI [10]: 2.88 µM

Structure (SMILES): CC(=O)OC1COC(n2c(=S)n(-c3ccccc3)c(=O)c3cc(Br)ccc32)C(OC(C)=O)C1OC(C)=O (configuration not stated)
- TGI [1]: > 100 µM
- TGI [2]: > 100 µM
- TGI [3]: 55.5 µM
- TGI [4]: > 100 µM
- TGI [5]: 66.6 µM
- TGI [6]: > 100 µM
- TGI [7]: 77.7 µM
- TGI [8]: > 100 µM
- TGI [9]: 44.5 µM
- TGI [10]: > 100 µM

Structure (SMILES): O=C1C(Cl)=C(Nc2ccccc2)C(=O)c2ccccc21
- GI50 [1]: 8.93 µM
- TGI [1]: 35.3 µM
- GI50 [2]: 2.21 µM
- TGI [2]: 5.38 µM
- GI50 [3]: 1.28 µM
- TGI [3]: 2.64 µM
- GI50 [4]: 2.27 µM
- TGI [4]: 4.72 µM
- GI50 [5]: 1.6 µM
- TGI [5]: 2.99 µM
- GI50 [6]: 1.69 µM
- TGI [6]: 3.27 µM
- GI50 [7]: 5.41 µM
- TGI [7]: 17.5 µM
- GI50 [8]: 1.97 µM
- TGI [8]: 3.53 µM
- GI50 [9]: 1.8 µM
- TGI [9]: 3.24 µM
- GI50 [10]: 1.83 µM
- TGI [10]: 3.3 µM

Structure (SMILES): COc1c(Br)cc(Br)c(OC)c1-c1[nH]c(Br)c(Br)c1Br
- TGI [1]: 26 µM
- TGI [2]: 21.1 µM
- TGI [3]: 7.79 µM
- TGI [4]: 18.3 µM
- TGI [5]: 6.01 µM
- TGI [6]: 15.1 µM
- TGI [7]: 21.8 µM
- TGI [8]: 20 µM
- TGI [9]: 25.7 µM
- TGI [10]: 19.2 µM

Structure (SMILES): C=CCO/N=C/c1cc(NC(=S)c2ccoc2C)ccc1Cl
- TGI [1]: 58.6 µM
- TGI [2]: 29.2 µM
- TGI [3]: 42.3 µM
- TGI [4]: 26.2 µM
- TGI [5]: 65.8 µM
- TGI [6]: 36 µM
- TGI [7]: 44.6 µM
- TGI [8]: > 100 µM
- TGI [9]: 60.6 µM
- TGI [10]: 34 µM

Structure (SMILES): C=C1CC2(OC1=O)C(=O)N(CCCN1C(=O)C3(CC(=C)C(=O)O3)c3ccccc31)c1ccccc12 (configuration not stated)
- GI50 [1]: 3.12 µM
- TGI [1]: 17 µM
- GI50 [2]: 13.6 µM
- TGI [2]: 26.7 µM
- GI50 [3]: 1.33 µM
- TGI [3]: 2.76 µM
- GI50 [4]: 1.85 µM
- TGI [4]: 4.91 µM
- GI50 [5]: 1.32 µM
- TGI [5]: 2.83 µM
- GI50 [6]: 3.32 µM
- TGI [6]: 12 µM
- GI50 [7]: 1.76 µM
- TGI [7]: 3.43 µM
- GI50 [8]: 1.92 µM
- TGI [8]: 3.61 µM
- GI50 [9]: 5.45 µM
- TGI [9]: 18.7 µM
- GI50 [10]: 1.66 µM
- TGI [10]: 3.95 µM

Structure (SMILES): Cc1ncc(C(=O)Nc2ccc(CN3CCN(C)CC3)c(C(F)(F)F)c2)cc1C#Cc1cnc(NC2CC2)c2ncccc12
- GI50 [1]: 1.78 µM
- TGI [1]: 5.56 µM
- GI50 [2]: 0.659 µM
- TGI [2]: 1.21 µM
- GI50 [3]: 0.682 µM
- TGI [3]: 2.08 µM
- GI50 [4]: 0.474 µM
- TGI [4]: 1.31 µM
- GI50 [5]: 0.606 µM
- TGI [5]: 1.1 µM
- GI50 [6]: 0.755 µM
- TGI [6]: 1.48 µM
- GI50 [7]: 0.612 µM
- TGI [7]: 1.11 µM
- GI50 [8]: 0.641 µM
- TGI [8]: 1.18 µM
- GI50 [9]: 0.581 µM
- TGI [9]: 1.11 µM
- GI50 [10]: 0.719 µM
- TGI [10]: 1.59 µM

Structure (SMILES): CCSc1nc(N)c2cn[nH]c2n1
- GI50 [1]: 20.7 µM
- TGI [1]: 50.2 µM
- GI50 [2]: 51.4 µM
- TGI [2]: > 100 µM
- GI50 [3]: 1.37 µM
- TGI [3]: 93.3 µM
- GI50 [4]: 29.4 µM
- TGI [4]: 81.9 µM
- GI50 [5]: 13.3 µM
- TGI [5]: 35.5 µM
- GI50 [6]: 25.3 µM
- TGI [6]: 74.1 µM
- GI50 [7]: 43.6 µM
- TGI [7]: > 100 µM
- GI50 [8]: 33.2 µM
- TGI [8]: > 100 µM
- GI50 [9]: 43.1 µM
- TGI [9]: > 100 µM
- GI50 [10]: 71.1 µM
- TGI [10]: > 100 µM

Structure (SMILES): O=C(/C=C/c1ccccc1)CC(c1ccccc1)N1CCOCC1 (configuration not stated)
- GI50 [1]: 12.9 µM
- TGI [1]: 26.2 µM
- GI50 [2]: 9.52 µM
- TGI [2]: 22.3 µM
- GI50 [3]: 3.59 µM
- TGI [3]: 18.3 µM
- GI50 [4]: 3.7 µM
- TGI [4]: 16.7 µM
- GI50 [5]: 1.61 µM
- TGI [5]: 3.03 µM
- GI50 [6]: 5.07 µM
- TGI [6]: 19.3 µM
- GI50 [7]: 2.24 µM
- TGI [7]: 5.98 µM
- GI50 [8]: 13.8 µM
- TGI [8]: 30 µM
- GI50 [9]: 2.44 µM
- TGI [9]: 5.21 µM
- GI50 [10]: 5.63 µM
- TGI [10]: 18.8 µM

Structure (SMILES): CC1CCCc2c1nn(C(=O)/C=C(\N)c1ccccc1)c2N (configuration not stated)
- GI50 [1]: 9.64 µM
- TGI [1]: 90.5 µM
- GI50 [2]: 16.5 µM
- TGI [2]: 44.1 µM
- GI50 [3]: 10.3 µM
- TGI [3]: 95.7 µM
- GI50 [4]: 16.8 µM
- TGI [4]: > 100 µM
- GI50 [5]: 31.3 µM
- TGI [5]: > 100 µM
- GI50 [6]: 9.61 µM
- TGI [6]: > 100 µM
- GI50 [7]: 17.7 µM
- TGI [7]: > 100 µM
- GI50 [8]: 17.9 µM
- TGI [8]: > 100 µM
- GI50 [9]: 5.06 µM
- TGI [9]: > 100 µM
- GI50 [10]: 25.6 µM
- TGI [10]: > 100 µM

Structure (SMILES): CCOC(=O)C(=O)Nc1ccccc1C(F)(F)F
- TGI [1]: > 100 µM
- TGI [2]: > 100 µM
- TGI [3]: > 100 µM
- TGI [4]: > 100 µM
- TGI [5]: > 100 µM
- TGI [6]: > 100 µM
- TGI [7]: > 100 µM
- TGI [8]: > 100 µM
- TGI [9]: > 100 µM
- TGI [10]: > 100 µM

Structure (SMILES): O=c1c(Cl)c(Cl)cnn1CCc1ccncc1
- TGI [1]: 44.6 µM
- TGI [2]: 36.2 µM
- TGI [3]: 38.5 µM
- TGI [4]: 31.6 µM
- TGI [5]: 42.2 µM
- TGI [6]: 40.8 µM
- TGI [7]: 43.4 µM
- TGI [8]: 30.7 µM
- TGI [10]: 34.1 µM

Structure (SMILES): COc1ccc(-c2nnc(N3CCN(C(=O)CN4CCN(c5ccc(OC)cc5)CC4)CC3)nc2-c2ccc(OC)cc2)cc1
- GI50 [1]: 25.8 µM
- TGI [1]: 50.4 µM
- GI50 [2]: 7.86 µM
- TGI [2]: > 65.9 µM
- GI50 [3]: 16.1 µM
- TGI [3]: 35.2 µM
- GI50 [4]: 3.39 µM
- TGI [4]: 10.8 µM
- GI50 [5]: 5.38 µM
- TGI [5]: 38.8 µM
- GI50 [6]: 3.62 µM
- TGI [6]: 14.2 µM
- GI50 [7]: 14.1 µM
- TGI [7]: 33.2 µM
- GI50 [8]: 13.4 µM
- TGI [8]: 34.6 µM
- GI50 [9]: 5.31 µM
- TGI [9]: 66.1 µM
- GI50 [10]: 17.5 µM
- TGI [10]: 39.5 µM

Structure (SMILES): Cn1c(/C(C#N)=C/c2ccc3ccccc3c2)cc2ccccc21
- GI50 [1]: 0.0409 µM
- TGI [1]: 0.552 µM
- GI50 [2]: 0.471 µM
- TGI [2]: > 100 µM
- GI50 [3]: 0.0395 µM
- TGI [3]: > 100 µM
- GI50 [4]: 0.353 µM
- TGI [4]: > 100 µM
- GI50 [5]: 0.0507 µM
- TGI [5]: 0.474 µM
- GI50 [7]: 0.101 µM
- TGI [7]: 0.941 µM
- GI50 [8]: 16.6 µM
- TGI [8]: > 100 µM
- GI50 [9]: 0.249 µM
- TGI [9]: > 100 µM
- GI50 [10]: > 100 µM
- TGI [10]: > 100 µM
